{"source": "ChEMBL document CHEMBL1201861", "about": "“Genomics of Drug Sensitity in Cancer screening data, Wellcome Trust Sanger Institute”"}
{"tested_on": "CP50-MEL-B", "assay": "cells", "format": "functional, cell-based, Homo sapiens", "conditions": "Homo sapiens, CP50-MEL-B", "units": {"IC50": "nM"}, "description": "SANGER: Inhibition of human CP50-MEL-B cell growth in a cell viability assay."}
{"compound": "N#Cc1c(O)c2c(-c3ccc(-c4ccccc4O)cc3)csc2[nH]c1=O", "IC50": "> 1020"}
{"tested_on": "DBTRG-05MG", "assay": "cells", "format": "functional, cell-based, Homo sapiens", "conditions": "Homo sapiens, DBTRG-05MG", "units": {"IC50": "nM"}, "description": "SANGER: Inhibition of human DBTRG-05MG cell growth in a cell viability assay."}
{"compound": "N#Cc1c(O)c2c(-c3ccc(-c4ccccc4O)cc3)csc2[nH]c1=O", "IC50": "> 1020"}
{"tested_on": "DK-MG", "assay": "cells", "format": "functional, cell-based, Homo sapiens", "conditions": "Homo sapiens, DK-MG", "units": {"IC50": "nM"}, "description": "SANGER: Inhibition of human DK-MG cell growth in a cell viability assay."}
{"compound": "N#Cc1c(O)c2c(-c3ccc(-c4ccccc4O)cc3)csc2[nH]c1=O", "IC50": "> 1020"}
{"tested_on": "DOK", "assay": "cells", "format": "functional, cell-based, Homo sapiens", "conditions": "Homo sapiens, DOK", "units": {"IC50": "nM"}, "description": "SANGER: Inhibition of human DOK cell growth in a cell viability assay."}
{"compound": "N#Cc1c(O)c2c(-c3ccc(-c4ccccc4O)cc3)csc2[nH]c1=O", "IC50": "> 1020"}
{"tested_on": "FaDu", "assay": "cells", "format": "functional, cell-based, Homo sapiens", "conditions": "Homo sapiens, FaDu", "units": {"IC50": "nM"}, "description": "SANGER: Inhibition of human FADU cell growth in a cell viability assay."}
{"compound": "N#Cc1c(O)c2c(-c3ccc(-c4ccccc4O)cc3)csc2[nH]c1=O", "IC50": "> 1020"}
{"tested_on": "HCC38", "assay": "cells", "format": "functional, cell-based, Homo sapiens", "conditions": "Homo sapiens, HCC38", "units": {"IC50": "nM"}, "description": "SANGER: Inhibition of human HCC38 cell growth in a cell viability assay."}
{"compound": "N#Cc1c(O)c2c(-c3ccc(-c4ccccc4O)cc3)csc2[nH]c1=O", "IC50": "> 1020"}
{"tested_on": "HOS", "assay": "cells", "format": "functional, cell-based, Homo sapiens", "conditions": "Homo sapiens, HOS", "units": {"IC50": "nM"}, "description": "SANGER: Inhibition of human HOS cell growth in a cell viability assay."}
{"compound": "N#Cc1c(O)c2c(-c3ccc(-c4ccccc4O)cc3)csc2[nH]c1=O", "IC50": "> 1020"}
{"tested_on": "HSC-3", "assay": "cells", "format": "functional, cell-based, Homo sapiens", "conditions": "Homo sapiens, HSC-3", "units": {"IC50": "nM"}, "description": "SANGER: Inhibition of human HSC-3 cell growth in a cell viability assay."}
{"compound": "N#Cc1c(O)c2c(-c3ccc(-c4ccccc4O)cc3)csc2[nH]c1=O", "IC50": "> 1020"}
{"tested_on": "HT-1080", "assay": "cells", "format": "functional, cell-based, Homo sapiens", "conditions": "Homo sapiens, HT-1080", "units": {"IC50": "nM"}, "description": "SANGER: Inhibition of human HT-1080 cell growth in a cell viability assay."}
{"compound": "N#Cc1c(O)c2c(-c3ccc(-c4ccccc4O)cc3)csc2[nH]c1=O", "IC50": "> 1020"}
{"tested_on": "HT-3", "assay": "cells", "format": "functional, cell-based, Homo sapiens", "conditions": "Homo sapiens, HT-3", "units": {"IC50": "nM"}, "description": "SANGER: Inhibition of human HT-3 cell growth in a cell viability assay."}
{"compound": "N#Cc1c(O)c2c(-c3ccc(-c4ccccc4O)cc3)csc2[nH]c1=O", "IC50": "> 1020"}
{"tested_on": "HTC-C3", "assay": "cells", "format": "functional, cell-based, Homo sapiens", "conditions": "Homo sapiens, HTC-C3", "units": {"IC50": "nM"}, "description": "SANGER: Inhibition of human HTC-C3 cell growth in a cell viability assay."}
{"compound": "N#Cc1c(O)c2c(-c3ccc(-c4ccccc4O)cc3)csc2[nH]c1=O", "IC50": "> 1020"}
{"tested_on": "HuO9", "assay": "cells", "format": "functional, cell-based, Homo sapiens", "conditions": "Homo sapiens, HuO9", "units": {"IC50": "nM"}, "description": "SANGER: Inhibition of human HuO9 cell growth in a cell viability assay."}
{"compound": "N#Cc1c(O)c2c(-c3ccc(-c4ccccc4O)cc3)csc2[nH]c1=O", "IC50": "> 1020"}
{"tested_on": "J82", "assay": "cells", "format": "functional, cell-based, Homo sapiens", "conditions": "Homo sapiens, J82", "units": {"IC50": "nM"}, "description": "SANGER: Inhibition of human J82 cell growth in a cell viability assay."}
{"compound": "N#Cc1c(O)c2c(-c3ccc(-c4ccccc4O)cc3)csc2[nH]c1=O", "IC50": "> 1020"}
{"tested_on": "MC-IXC", "assay": "cells", "format": "functional, cell-based, Homo sapiens", "conditions": "Homo sapiens, MC-IXC", "units": {"IC50": "nM"}, "description": "SANGER: Inhibition of human MC-IXC cell growth in a cell viability assay."}
{"compound": "N#Cc1c(O)c2c(-c3ccc(-c4ccccc4O)cc3)csc2[nH]c1=O", "IC50": "> 1020"}
{"tested_on": "MHH-ES-1", "assay": "cells", "format": "functional, cell-based, Homo sapiens", "conditions": "Homo sapiens, MHH-ES-1", "units": {"IC50": "nM"}, "description": "SANGER: Inhibition of human MHH-ES-1 cell growth in a cell viability assay."}
{"compound": "N#Cc1c(O)c2c(-c3ccc(-c4ccccc4O)cc3)csc2[nH]c1=O", "IC50": "> 1020"}
{"tested_on": "MKN-1", "assay": "cells", "format": "functional, cell-based, Homo sapiens", "conditions": "Homo sapiens, MKN-1", "units": {"IC50": "nM"}, "description": "SANGER: Inhibition of human MKN1 cell growth in a cell viability assay."}
{"compound": "N#Cc1c(O)c2c(-c3ccc(-c4ccccc4O)cc3)csc2[nH]c1=O", "IC50": "> 1020"}
{"tested_on": "NCI-H1563", "assay": "cells", "format": "functional, cell-based, Homo sapiens", "conditions": "Homo sapiens, NCI-H1563", "units": {"IC50": "nM"}, "description": "SANGER: Inhibition of human NCI-H1563 cell growth in a cell viability assay."}
{"compound": "N#Cc1c(O)c2c(-c3ccc(-c4ccccc4O)cc3)csc2[nH]c1=O", "IC50": "> 1020"}
{"tested_on": "NCI-H2052", "assay": "cells", "format": "functional, cell-based, Homo sapiens", "conditions": "Homo sapiens, NCI-H2052", "units": {"IC50": "nM"}, "description": "SANGER: Inhibition of human NCI-H2052 cell growth in a cell viability assay."}
{"compound": "N#Cc1c(O)c2c(-c3ccc(-c4ccccc4O)cc3)csc2[nH]c1=O", "IC50": "> 1020"}
{"tested_on": "NCI-H2081", "assay": "cells", "format": "functional, cell-based, Homo sapiens", "conditions": "Homo sapiens, NCI-H2081", "units": {"IC50": "nM"}, "description": "SANGER: Inhibition of human NCI-H2081 cell growth in a cell viability assay."}
{"compound": "N#Cc1c(O)c2c(-c3ccc(-c4ccccc4O)cc3)csc2[nH]c1=O", "IC50": "> 1020"}
{"tested_on": "NCI-H292", "assay": "cells", "format": "functional, cell-based, Homo sapiens", "conditions": "Homo sapiens, NCI-H292", "units": {"IC50": "nM"}, "description": "SANGER: Inhibition of human NCI-H292 cell growth in a cell viability assay."}
{"compound": "N#Cc1c(O)c2c(-c3ccc(-c4ccccc4O)cc3)csc2[nH]c1=O", "IC50": "> 1020"}
{"tested_on": "PANC-08-13", "assay": "cells", "format": "functional, cell-based, Homo sapiens", "conditions": "Homo sapiens, PANC-08-13", "units": {"IC50": "nM"}, "description": "SANGER: Inhibition of human PANC-08-13 cell growth in a cell viability assay."}
{"compound": "N#Cc1c(O)c2c(-c3ccc(-c4ccccc4O)cc3)csc2[nH]c1=O", "IC50": "> 1020"}
{"tested_on": "RT-112", "assay": "cells", "format": "functional, cell-based, Homo sapiens", "conditions": "Homo sapiens, RT-112", "units": {"IC50": "nM"}, "description": "SANGER: Inhibition of human RT-112 cell growth in a cell viability assay."}
{"compound": "N#Cc1c(O)c2c(-c3ccc(-c4ccccc4O)cc3)csc2[nH]c1=O", "IC50": "> 1020"}
{"tested_on": "SK-MM-2", "assay": "cells", "format": "functional, cell-based, Homo sapiens", "conditions": "Homo sapiens, SK-MM-2", "units": {"IC50": "nM"}, "description": "SANGER: Inhibition of human SK-MM-2 cell growth in a cell viability assay."}
{"compound": "N#Cc1c(O)c2c(-c3ccc(-c4ccccc4O)cc3)csc2[nH]c1=O", "IC50": 109}
{"tested_on": "SNU-387", "assay": "cells", "format": "functional, cell-based, Homo sapiens", "conditions": "Homo sapiens, SNU-387", "units": {"IC50": "nM"}, "description": "SANGER: Inhibition of human SNU-387 cell growth in a cell viability assay."}
{"compound": "N#Cc1c(O)c2c(-c3ccc(-c4ccccc4O)cc3)csc2[nH]c1=O", "IC50": "> 1020"}
{"tested_on": "SR", "assay": "cells", "format": "functional, cell-based, Homo sapiens", "conditions": "Homo sapiens, SR", "units": {"IC50": "nM"}, "description": "SANGER: Inhibition of human SR cell growth in a cell viability assay."}
{"compound": "N#Cc1c(O)c2c(-c3ccc(-c4ccccc4O)cc3)csc2[nH]c1=O", "IC50": 114}
{"tested_on": "SW1783", "assay": "cells", "format": "functional, cell-based, Homo sapiens", "conditions": "Homo sapiens, SW1783", "units": {"IC50": "nM"}, "description": "SANGER: Inhibition of human SW1783 cell growth in a cell viability assay."}
{"compound": "N#Cc1c(O)c2c(-c3ccc(-c4ccccc4O)cc3)csc2[nH]c1=O", "IC50": "> 1020"}
{"tested_on": "SW837", "assay": "cells", "format": "functional, cell-based, Homo sapiens", "conditions": "Homo sapiens, SW837", "units": {"IC50": "nM"}, "description": "SANGER: Inhibition of human SW837 cell growth in a cell viability assay."}
{"compound": "N#Cc1c(O)c2c(-c3ccc(-c4ccccc4O)cc3)csc2[nH]c1=O", "IC50": "> 1020"}
{"tested_on": "786-0", "assay": "cells", "format": "functional, cell-based, Homo sapiens", "conditions": "Homo sapiens", "units": {"IC50": "nM"}, "description": "SANGER: Inhibition of human 786-0 cell growth in a cell viability assay."}
{"compound": "N#Cc1c(O)c2c(-c3ccc(-c4ccccc4O)cc3)csc2[nH]c1=O", "IC50": "> 1020"}
{"tested_on": "A204", "assay": "cells", "format": "functional, cell-based, Homo sapiens", "conditions": "Homo sapiens, A204", "units": {"IC50": "nM"}, "description": "SANGER: Inhibition of human A204 cell growth in a cell viability assay."}
{"compound": "N#Cc1c(O)c2c(-c3ccc(-c4ccccc4O)cc3)csc2[nH]c1=O", "IC50": "> 1020"}
{"tested_on": "A2058", "assay": "cells", "format": "functional, cell-based, Homo sapiens", "conditions": "Homo sapiens, A2058", "units": {"IC50": "nM"}, "description": "SANGER: Inhibition of human A2058 cell growth in a cell viability assay."}
{"compound": "N#Cc1c(O)c2c(-c3ccc(-c4ccccc4O)cc3)csc2[nH]c1=O", "IC50": "> 1020"}
{"tested_on": "A-431", "assay": "cells", "format": "functional, cell-based, Homo sapiens", "conditions": "Homo sapiens, A-431", "units": {"IC50": "nM"}, "description": "SANGER: Inhibition of human A431 cell growth in a cell viability assay."}
{"compound": "N#Cc1c(O)c2c(-c3ccc(-c4ccccc4O)cc3)csc2[nH]c1=O", "IC50": 29.2}
{"tested_on": "ABC-1", "assay": "cells", "format": "functional, cell-based, Homo sapiens", "conditions": "Homo sapiens, ABC-1", "units": {"IC50": "nM"}, "description": "SANGER: Inhibition of human ABC-1 cell growth in a cell viability assay."}
{"compound": "N#Cc1c(O)c2c(-c3ccc(-c4ccccc4O)cc3)csc2[nH]c1=O", "IC50": "> 1020"}
{"tested_on": "AN3-CA", "assay": "cells", "format": "functional, cell-based, Homo sapiens", "conditions": "Homo sapiens, AN3-CA", "units": {"IC50": "nM"}, "description": "SANGER: Inhibition of human AN3-CA cell growth in a cell viability assay."}
{"compound": "N#Cc1c(O)c2c(-c3ccc(-c4ccccc4O)cc3)csc2[nH]c1=O", "IC50": "> 1020"}
{"tested_on": "BCPAP", "assay": "cells", "format": "functional, cell-based, Homo sapiens", "conditions": "Homo sapiens, BCPAP", "units": {"IC50": "nM"}, "description": "SANGER: Inhibition of human BCPAP cell growth in a cell viability assay."}
{"compound": "N#Cc1c(O)c2c(-c3ccc(-c4ccccc4O)cc3)csc2[nH]c1=O", "IC50": "> 1020"}
{"tested_on": "BHY", "assay": "cells", "format": "functional, cell-based, Homo sapiens", "conditions": "Homo sapiens, BHY", "units": {"IC50": "nM"}, "description": "SANGER: Inhibition of human BHY cell growth in a cell viability assay."}
{"compound": "N#Cc1c(O)c2c(-c3ccc(-c4ccccc4O)cc3)csc2[nH]c1=O", "IC50": "> 1020"}
{"tested_on": "BOKU", "assay": "cells", "format": "functional, cell-based, Homo sapiens", "conditions": "Homo sapiens, BOKU", "units": {"IC50": "nM"}, "description": "SANGER: Inhibition of human BOKU cell growth in a cell viability assay."}
{"compound": "N#Cc1c(O)c2c(-c3ccc(-c4ccccc4O)cc3)csc2[nH]c1=O", "IC50": "> 1020"}
{"tested_on": "BT-20", "assay": "cells", "format": "functional, cell-based, Homo sapiens", "conditions": "Homo sapiens, BT-20", "units": {"IC50": "nM"}, "description": "SANGER: Inhibition of human BT-20 cell growth in a cell viability assay."}
{"compound": "N#Cc1c(O)c2c(-c3ccc(-c4ccccc4O)cc3)csc2[nH]c1=O", "IC50": "> 1020"}
{"tested_on": "C-33-A", "assay": "cells", "format": "functional, cell-based, Homo sapiens", "conditions": "Homo sapiens, C-33-A", "units": {"IC50": "nM"}, "description": "SANGER: Inhibition of human C-33-A cell growth in a cell viability assay."}
{"compound": "N#Cc1c(O)c2c(-c3ccc(-c4ccccc4O)cc3)csc2[nH]c1=O", "IC50": "> 1020"}
{"tested_on": "CAL-148", "assay": "cells", "format": "functional, cell-based, Homo sapiens", "conditions": "Homo sapiens, CAL-148", "units": {"IC50": "nM"}, "description": "SANGER: Inhibition of human CAL-148 cell growth in a cell viability assay."}
{"compound": "N#Cc1c(O)c2c(-c3ccc(-c4ccccc4O)cc3)csc2[nH]c1=O", "IC50": 223}
{"tested_on": "TUR", "assay": "cells", "format": "functional, cell-based, Homo sapiens", "conditions": "Homo sapiens, TUR", "units": {"IC50": "nM"}, "description": "SANGER: Inhibition of human TUR cell growth in a cell viability assay."}
{"compound": "N#Cc1c(O)c2c(-c3ccc(-c4ccccc4O)cc3)csc2[nH]c1=O", "IC50": 345}
{"tested_on": "UACC-893", "assay": "cells", "format": "functional, cell-based, Homo sapiens", "conditions": "Homo sapiens, UACC-893", "units": {"IC50": "nM"}, "description": "SANGER: Inhibition of human UACC-893 cell growth in a cell viability assay."}
{"compound": "N#Cc1c(O)c2c(-c3ccc(-c4ccccc4O)cc3)csc2[nH]c1=O", "IC50": "> 1020"}
{"tested_on": "VMRC-RCZ", "assay": "cells", "format": "functional, cell-based, Homo sapiens", "conditions": "Homo sapiens, VMRC-RCZ", "units": {"IC50": "nM"}, "description": "SANGER: Inhibition of human VMRC-RCZ cell growth in a cell viability assay."}
{"compound": "N#Cc1c(O)c2c(-c3ccc(-c4ccccc4O)cc3)csc2[nH]c1=O", "IC50": "> 1020"}
{"tested_on": "YT", "assay": "cells", "format": "functional, cell-based, Homo sapiens", "conditions": "Homo sapiens, YT", "units": {"IC50": "nM"}, "description": "SANGER: Inhibition of human YT cell growth in a cell viability assay."}
{"compound": "N#Cc1c(O)c2c(-c3ccc(-c4ccccc4O)cc3)csc2[nH]c1=O", "IC50": 46.7}
{"tested_on": "CHL-1", "assay": "cells", "format": "functional, cell-based, Homo sapiens", "conditions": "Homo sapiens, CHL-1", "units": {"IC50": "nM"}, "description": "SANGER: Inhibition of human CHL-1 cell growth in a cell viability assay."}
{"compound": "N#Cc1c(O)c2c(-c3ccc(-c4ccccc4O)cc3)csc2[nH]c1=O", "IC50": "> 1020"}
{"tested_on": "COLO-679", "assay": "cells", "format": "functional, cell-based, Homo sapiens", "conditions": "Homo sapiens, COLO-679", "units": {"IC50": "nM"}, "description": "SANGER: Inhibition of human COLO-679 cell growth in a cell viability assay."}
{"compound": "N#Cc1c(O)c2c(-c3ccc(-c4ccccc4O)cc3)csc2[nH]c1=O", "IC50": "> 1020"}
{"tested_on": "COLO-680N", "assay": "cells", "format": "functional, cell-based, Homo sapiens", "conditions": "Homo sapiens, COLO-680N", "units": {"IC50": "nM"}, "description": "SANGER: Inhibition of human COLO-680N cell growth in a cell viability assay."}
{"compound": "N#Cc1c(O)c2c(-c3ccc(-c4ccccc4O)cc3)csc2[nH]c1=O", "IC50": "> 1020"}
